Measured values from publication PMC9851200, “Multiparameter phenotypic screening for endogenous TFEB and TFE3 translocation identifies novel chemical series modulating lysosome function” (Autophagy, 2022).

Legend:
Assay type in all cases: binding
[1] = target: T1, kinases (KINOMEscan panel) (Homo sapiens, UniProt O15530); settings: NEW KINOMEscan
T1 sequence (O15530 1-556): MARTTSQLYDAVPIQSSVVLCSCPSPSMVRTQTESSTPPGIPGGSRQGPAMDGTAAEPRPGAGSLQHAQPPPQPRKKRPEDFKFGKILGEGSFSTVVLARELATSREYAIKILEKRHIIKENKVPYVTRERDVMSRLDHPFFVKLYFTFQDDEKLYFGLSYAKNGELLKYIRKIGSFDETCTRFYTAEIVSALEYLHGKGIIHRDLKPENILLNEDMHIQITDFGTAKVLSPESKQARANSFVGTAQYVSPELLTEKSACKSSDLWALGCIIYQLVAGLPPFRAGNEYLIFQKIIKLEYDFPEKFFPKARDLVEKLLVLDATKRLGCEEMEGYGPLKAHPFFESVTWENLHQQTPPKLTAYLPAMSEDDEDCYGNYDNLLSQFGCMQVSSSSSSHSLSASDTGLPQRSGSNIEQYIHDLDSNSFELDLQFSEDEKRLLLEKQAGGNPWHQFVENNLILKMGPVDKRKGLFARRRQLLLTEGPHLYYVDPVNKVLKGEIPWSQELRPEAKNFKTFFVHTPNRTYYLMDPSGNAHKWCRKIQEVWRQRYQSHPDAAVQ

[2] = target: kinases (KINOMEscan panel) (Homo sapiens, UniProt P00519, E255K); settings: NEW KINOMEscan
[3] = target: kinases (KINOMEscan panel) (Homo sapiens, UniProt P42336, E545K); settings: NEW KINOMEscan
[4] = target: T2, kinases (KINOMEscan panel) (Homo sapiens, UniProt Q9H2K8); settings: kinase TAOK3; NEW KINOMEscan
T2 sequence (Q9H2K8 1-898): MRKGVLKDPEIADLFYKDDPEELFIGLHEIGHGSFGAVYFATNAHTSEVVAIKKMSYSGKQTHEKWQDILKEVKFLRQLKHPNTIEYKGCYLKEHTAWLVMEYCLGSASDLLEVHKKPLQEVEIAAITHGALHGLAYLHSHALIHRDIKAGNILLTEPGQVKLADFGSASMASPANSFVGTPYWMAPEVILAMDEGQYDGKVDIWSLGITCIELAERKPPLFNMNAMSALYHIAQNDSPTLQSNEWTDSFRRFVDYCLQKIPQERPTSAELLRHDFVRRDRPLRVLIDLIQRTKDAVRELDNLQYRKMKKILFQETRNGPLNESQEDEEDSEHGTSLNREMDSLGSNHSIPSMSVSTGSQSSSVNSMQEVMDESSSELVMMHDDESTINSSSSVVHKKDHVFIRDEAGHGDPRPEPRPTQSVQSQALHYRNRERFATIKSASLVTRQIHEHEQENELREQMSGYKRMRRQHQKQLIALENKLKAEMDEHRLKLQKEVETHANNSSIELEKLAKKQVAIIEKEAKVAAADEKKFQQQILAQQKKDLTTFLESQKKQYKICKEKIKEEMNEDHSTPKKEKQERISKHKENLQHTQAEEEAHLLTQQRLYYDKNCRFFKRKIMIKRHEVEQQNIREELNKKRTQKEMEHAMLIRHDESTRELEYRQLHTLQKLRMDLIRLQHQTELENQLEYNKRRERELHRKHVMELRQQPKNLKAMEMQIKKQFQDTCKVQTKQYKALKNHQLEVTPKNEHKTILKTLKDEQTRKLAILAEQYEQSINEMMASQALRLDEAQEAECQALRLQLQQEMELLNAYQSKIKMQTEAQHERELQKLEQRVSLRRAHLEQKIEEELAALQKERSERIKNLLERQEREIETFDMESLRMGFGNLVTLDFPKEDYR

[5] = target: kinases (KINOMEscan panel) (Homo sapiens, UniProt P07949, V804L); settings: NEW KINOMEscan
[6] = target: kinases (KINOMEscan panel) (Homo sapiens, UniProt O60674); settings: JAK2(JH1domain-catalytic); NEW KINOMEscan
[7] = target: kinases (KINOMEscan panel) (Plasmodium falciparum, UniProt P62344); settings: PFCDPK1(P.falciparum); NEW KINOMEscan
[8] = target: kinases (KINOMEscan panel) (Homo sapiens, UniProt P06213); settings: kinase INSR; NEW KINOMEscan
[9] = target: kinases (KINOMEscan panel) (Homo sapiens, UniProt P31751); settings: NEW KINOMEscan
[10] = target: T3, kinases (KINOMEscan panel) (Homo sapiens, UniProt Q15835); settings: NEW KINOMEscan
T3 sequence (Q15835 1-563): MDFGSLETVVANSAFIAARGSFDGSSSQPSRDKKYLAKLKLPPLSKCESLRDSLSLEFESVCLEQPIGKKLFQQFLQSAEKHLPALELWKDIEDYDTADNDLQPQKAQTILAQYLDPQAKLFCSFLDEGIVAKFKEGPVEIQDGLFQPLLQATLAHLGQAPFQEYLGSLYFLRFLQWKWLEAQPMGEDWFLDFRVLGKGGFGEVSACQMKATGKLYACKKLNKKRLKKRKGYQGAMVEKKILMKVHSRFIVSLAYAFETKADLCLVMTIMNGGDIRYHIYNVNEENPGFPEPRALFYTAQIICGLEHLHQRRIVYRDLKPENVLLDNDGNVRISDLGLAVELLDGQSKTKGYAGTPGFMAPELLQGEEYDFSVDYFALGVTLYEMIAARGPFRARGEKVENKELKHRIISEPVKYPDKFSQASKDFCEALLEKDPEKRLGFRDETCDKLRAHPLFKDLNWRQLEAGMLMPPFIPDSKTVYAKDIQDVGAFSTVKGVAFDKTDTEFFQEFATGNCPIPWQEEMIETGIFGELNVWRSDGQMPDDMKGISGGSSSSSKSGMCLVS

[11] = target: kinases (KINOMEscan panel) (Homo sapiens, UniProt P08581, M1250T); settings: kinase MET(M1250T); NEW KINOMEscan

Sequence of kinases (KINOMEscan panel) (Homo sapiens, UniProt P42336, E545K) (P42336 whole entry E545K): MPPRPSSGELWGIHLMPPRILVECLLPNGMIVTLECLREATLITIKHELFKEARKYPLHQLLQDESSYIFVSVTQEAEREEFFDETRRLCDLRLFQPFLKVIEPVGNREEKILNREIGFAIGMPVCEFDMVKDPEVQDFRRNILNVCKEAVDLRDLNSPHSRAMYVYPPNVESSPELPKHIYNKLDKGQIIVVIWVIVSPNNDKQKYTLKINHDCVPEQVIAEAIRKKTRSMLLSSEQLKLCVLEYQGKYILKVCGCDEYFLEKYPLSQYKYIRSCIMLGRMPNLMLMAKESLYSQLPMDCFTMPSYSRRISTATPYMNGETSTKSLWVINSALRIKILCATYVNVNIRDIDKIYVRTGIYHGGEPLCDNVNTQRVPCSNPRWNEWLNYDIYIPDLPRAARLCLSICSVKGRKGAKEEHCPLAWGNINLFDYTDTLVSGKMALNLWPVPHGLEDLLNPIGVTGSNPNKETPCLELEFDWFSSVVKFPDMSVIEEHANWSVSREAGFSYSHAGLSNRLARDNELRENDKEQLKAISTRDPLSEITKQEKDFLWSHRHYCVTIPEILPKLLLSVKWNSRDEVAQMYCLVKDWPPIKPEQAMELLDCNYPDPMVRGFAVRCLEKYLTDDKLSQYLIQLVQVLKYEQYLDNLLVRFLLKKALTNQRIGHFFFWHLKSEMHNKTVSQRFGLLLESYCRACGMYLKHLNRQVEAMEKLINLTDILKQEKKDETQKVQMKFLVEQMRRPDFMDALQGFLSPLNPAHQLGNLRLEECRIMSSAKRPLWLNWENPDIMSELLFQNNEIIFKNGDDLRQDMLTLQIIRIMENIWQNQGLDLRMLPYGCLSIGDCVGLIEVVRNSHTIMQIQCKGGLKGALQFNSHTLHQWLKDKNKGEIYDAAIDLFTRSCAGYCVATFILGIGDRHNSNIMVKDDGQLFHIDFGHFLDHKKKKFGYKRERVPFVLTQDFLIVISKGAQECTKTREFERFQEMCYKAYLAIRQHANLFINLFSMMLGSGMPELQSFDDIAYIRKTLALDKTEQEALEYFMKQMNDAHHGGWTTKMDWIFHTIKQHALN
Sequence of kinases (KINOMEscan panel) (Homo sapiens, UniProt O60674) (O60674 whole entry): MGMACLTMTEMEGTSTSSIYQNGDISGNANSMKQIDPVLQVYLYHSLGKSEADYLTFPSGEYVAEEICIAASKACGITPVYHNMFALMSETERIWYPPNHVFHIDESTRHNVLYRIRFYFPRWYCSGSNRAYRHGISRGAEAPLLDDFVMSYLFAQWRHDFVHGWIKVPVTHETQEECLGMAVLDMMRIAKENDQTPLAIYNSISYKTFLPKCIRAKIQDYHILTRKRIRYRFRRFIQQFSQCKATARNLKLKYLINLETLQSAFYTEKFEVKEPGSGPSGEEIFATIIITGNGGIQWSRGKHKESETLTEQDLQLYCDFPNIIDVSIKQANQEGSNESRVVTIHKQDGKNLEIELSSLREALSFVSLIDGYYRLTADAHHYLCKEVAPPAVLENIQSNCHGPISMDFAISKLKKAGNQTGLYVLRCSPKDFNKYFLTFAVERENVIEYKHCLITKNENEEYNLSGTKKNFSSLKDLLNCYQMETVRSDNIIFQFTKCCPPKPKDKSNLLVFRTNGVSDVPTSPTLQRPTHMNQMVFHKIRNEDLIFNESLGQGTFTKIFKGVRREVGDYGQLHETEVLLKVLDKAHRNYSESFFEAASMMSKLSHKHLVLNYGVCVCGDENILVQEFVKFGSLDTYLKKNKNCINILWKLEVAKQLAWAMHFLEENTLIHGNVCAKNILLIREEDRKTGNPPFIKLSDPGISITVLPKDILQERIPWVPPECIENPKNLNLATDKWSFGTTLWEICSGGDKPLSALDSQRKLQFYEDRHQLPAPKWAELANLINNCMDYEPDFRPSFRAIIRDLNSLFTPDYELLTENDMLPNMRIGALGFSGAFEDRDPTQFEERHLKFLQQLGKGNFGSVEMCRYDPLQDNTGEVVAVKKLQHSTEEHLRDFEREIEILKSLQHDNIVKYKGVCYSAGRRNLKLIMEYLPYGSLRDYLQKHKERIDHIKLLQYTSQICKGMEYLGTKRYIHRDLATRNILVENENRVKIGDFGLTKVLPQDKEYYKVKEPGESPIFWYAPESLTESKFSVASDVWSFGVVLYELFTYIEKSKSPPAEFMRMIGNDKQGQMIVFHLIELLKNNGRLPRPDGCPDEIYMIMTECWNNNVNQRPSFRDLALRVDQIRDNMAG
Sequence of kinases (KINOMEscan panel) (Homo sapiens, UniProt P06213) (P06213 28-1382): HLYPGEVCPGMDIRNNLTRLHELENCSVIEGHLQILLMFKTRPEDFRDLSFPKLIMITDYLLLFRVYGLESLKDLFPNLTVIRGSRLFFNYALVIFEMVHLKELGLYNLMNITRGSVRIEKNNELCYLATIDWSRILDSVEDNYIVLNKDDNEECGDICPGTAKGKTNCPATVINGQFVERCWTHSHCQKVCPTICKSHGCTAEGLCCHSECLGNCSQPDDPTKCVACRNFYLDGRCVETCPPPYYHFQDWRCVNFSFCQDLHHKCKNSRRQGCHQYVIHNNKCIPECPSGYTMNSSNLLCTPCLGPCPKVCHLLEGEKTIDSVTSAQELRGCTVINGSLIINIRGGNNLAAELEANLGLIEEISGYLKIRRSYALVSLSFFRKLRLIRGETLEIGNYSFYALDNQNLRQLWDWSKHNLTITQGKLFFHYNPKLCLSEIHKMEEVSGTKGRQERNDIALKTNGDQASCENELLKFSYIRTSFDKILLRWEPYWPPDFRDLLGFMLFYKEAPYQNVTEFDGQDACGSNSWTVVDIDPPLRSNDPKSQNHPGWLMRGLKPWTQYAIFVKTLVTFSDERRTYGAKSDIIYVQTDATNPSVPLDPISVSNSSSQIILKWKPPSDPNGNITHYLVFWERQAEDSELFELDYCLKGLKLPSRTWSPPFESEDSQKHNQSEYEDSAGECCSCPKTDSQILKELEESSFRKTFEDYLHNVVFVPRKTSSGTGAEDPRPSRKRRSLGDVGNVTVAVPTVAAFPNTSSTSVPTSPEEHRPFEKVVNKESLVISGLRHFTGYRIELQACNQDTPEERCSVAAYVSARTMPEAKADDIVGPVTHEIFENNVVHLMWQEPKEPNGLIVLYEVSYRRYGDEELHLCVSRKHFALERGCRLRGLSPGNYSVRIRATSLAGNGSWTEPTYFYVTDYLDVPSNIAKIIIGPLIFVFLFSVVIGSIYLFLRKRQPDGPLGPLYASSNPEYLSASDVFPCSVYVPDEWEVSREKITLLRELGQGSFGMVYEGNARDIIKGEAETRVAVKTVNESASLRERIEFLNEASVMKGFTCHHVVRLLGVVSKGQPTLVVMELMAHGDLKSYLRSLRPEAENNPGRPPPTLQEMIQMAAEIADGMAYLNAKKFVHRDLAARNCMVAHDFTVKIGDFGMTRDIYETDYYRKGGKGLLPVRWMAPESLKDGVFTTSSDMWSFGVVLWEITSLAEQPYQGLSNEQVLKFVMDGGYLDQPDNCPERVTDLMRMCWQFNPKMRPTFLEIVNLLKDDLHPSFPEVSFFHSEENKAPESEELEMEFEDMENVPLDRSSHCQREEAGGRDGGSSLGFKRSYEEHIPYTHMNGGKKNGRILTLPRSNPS
Sequence of kinases (KINOMEscan panel) (Plasmodium falciparum, UniProt P62344) (P62344 whole entry): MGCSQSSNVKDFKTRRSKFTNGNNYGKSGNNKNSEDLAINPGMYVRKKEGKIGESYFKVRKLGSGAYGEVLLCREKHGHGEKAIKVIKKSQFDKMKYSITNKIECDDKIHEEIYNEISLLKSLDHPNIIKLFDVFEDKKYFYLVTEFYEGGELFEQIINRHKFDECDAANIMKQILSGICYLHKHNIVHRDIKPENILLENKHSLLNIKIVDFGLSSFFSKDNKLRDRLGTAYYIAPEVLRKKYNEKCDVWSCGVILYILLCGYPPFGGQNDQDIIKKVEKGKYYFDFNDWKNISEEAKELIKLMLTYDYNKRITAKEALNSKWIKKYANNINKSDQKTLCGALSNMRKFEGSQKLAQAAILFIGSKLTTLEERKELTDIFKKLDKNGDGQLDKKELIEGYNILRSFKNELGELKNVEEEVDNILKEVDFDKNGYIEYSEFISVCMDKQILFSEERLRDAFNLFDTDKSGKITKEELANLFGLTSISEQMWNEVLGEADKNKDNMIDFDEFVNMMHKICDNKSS
Sequence of kinases (KINOMEscan panel) (Homo sapiens, UniProt P31751) (P31751 whole entry): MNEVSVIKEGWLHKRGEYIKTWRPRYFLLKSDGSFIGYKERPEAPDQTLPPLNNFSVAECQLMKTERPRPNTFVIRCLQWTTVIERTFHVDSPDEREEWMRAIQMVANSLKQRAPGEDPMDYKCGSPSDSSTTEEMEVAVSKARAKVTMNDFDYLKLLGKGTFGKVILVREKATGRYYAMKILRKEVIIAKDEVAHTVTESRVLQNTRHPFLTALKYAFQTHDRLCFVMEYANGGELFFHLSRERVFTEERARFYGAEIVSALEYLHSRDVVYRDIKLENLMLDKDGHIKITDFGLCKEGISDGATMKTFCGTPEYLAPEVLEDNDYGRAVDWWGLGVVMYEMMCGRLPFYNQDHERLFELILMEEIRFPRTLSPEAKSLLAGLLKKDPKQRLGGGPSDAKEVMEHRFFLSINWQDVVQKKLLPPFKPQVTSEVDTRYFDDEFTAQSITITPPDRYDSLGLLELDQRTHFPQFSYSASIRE

| Structure (SMILES) | KINOMEscan PDPK1 [1] | KINOMEscan ABL1(E255K)-phosphorylated [2] | KINOMEscan PIK3CA(E545K) [3] | KINOMEscan TAOK3 [4] | KINOMEscan RET(V804L) [5] | KINOMEscan JAK2(JH1domain-catalytic) [6] | KINOMEscan PFCDPK1(P.falciparum) [7] | KINOMEscan INSR [8] | KINOMEscan AKT2 [9] | KINOMEscan GRK1 [10] | KINOMEscan MET(M1250T) [11] |
| --- | --- | --- | --- | --- | --- | --- | --- | --- | --- | --- | --- |
| Cc1cccc(-c2nc(Nc3ccc4nn(C)cc4c3)c3ccccc3n2)n1 [NK167] | 32 | 15 | 67 | 4 | 0 | 0 | 0 | 0 | 28 | 37 | 0 |
| Cc1cccc(-c2nc(N(C)c3ccc4ncsc4c3)c3ccccc3n2)n1 [NK-161] | 29 | 22 | 40 | 13 | 15 | 0 | 0 | 2 | 19 | 25 | 3 |
